{"source": "patent US6878514B1", "about": "“Methods for identifying agents that inhibit serum aging factors and uses and compositions thereof” (Purdue Research Foundation, priority 1999, dated 2005)", "key": {"[1]": {"test_system": "AR-NOX in sera", "test": "Cytochrome c reduction by sera and inhibition by SOD or ubiquinone (Q10)", "assay_type": "biochemical, human", "description": "(§1) The generation of superoxide radical was determined by assaying the rate of superoxide dismutase (SOD)-inhibitable cytochrome c reduction (Mayo and Curnette, 1990, Meth Enzymol. 186:567-575 and Butler et al., 1982, J. Biol. Chem. 257:10747-10750). The cytochrome c was from horse heart mitochondria (type VI, Sigma) and was dissolved in PBSG buffer (see below) to make a solution with a concentration of 1 mg/ml. Air-saturated reaction mixtures of […] cytochrome c stock solution and […] of a cell suspension (suspended in PBSG buffer) to give a final concentration of ˜5×10^6 cells/ml were added to 2 ml of PBSG buffer (138 mM NaCl, 2.7 mM KCl, 8.1 mM Na2HHPO4, pH 7.4 supplemented with 0.9 mM CaCl2, and 7.5 mM glucose and contained in plastic cuvettes. The formation of reduced cytochrome c was measured in the presence and absence of SOD (15 mg, Sigma) or capsaicin (2.5 mM) by comparing the absorbance of the mixture at 550 nm-540 nm. Superoxide formation was stimulated by using a handheld UV light (254 nm, 200 mw/cm^2). The extent of cytochrome c reduction was monitored spectrophotometrically at 550 nm every ten sec with gentle mixing between readings. Data were analyzed from the slope of the change in a 550 nm-540 nm before and after UV and then again after SOD or capsaicin was added. Data were expressed as nmoles O2[…]/10^6 cells using a value of SM550nm=19.1×10^3 M^−1 cm^−1.\nCytochrome c reduction by sera was assayed as for cells except that the samples were not mixed in between readings. The Q10 was added as an ethanolic solution.\nSera were obtained from the patient population of St. Elizabeth Hospital, Lafayette, Ind. and the resident population of St. Anthony's Health Care, Lafayette, Ind. Confidentiality of medical records was assured by assigning a number to each sample."}, "[2]": {"target": "T1, NOX (NADH oxidase / ubiquinol oxidase) from HeLa cells (Homo sapiens, UniProt Q16206)", "T1 construct": "other: HeLa NOX preparation; other: NOX partially purified from surface of HeLa cells", "T1 sequence (Q16206 1-610)": "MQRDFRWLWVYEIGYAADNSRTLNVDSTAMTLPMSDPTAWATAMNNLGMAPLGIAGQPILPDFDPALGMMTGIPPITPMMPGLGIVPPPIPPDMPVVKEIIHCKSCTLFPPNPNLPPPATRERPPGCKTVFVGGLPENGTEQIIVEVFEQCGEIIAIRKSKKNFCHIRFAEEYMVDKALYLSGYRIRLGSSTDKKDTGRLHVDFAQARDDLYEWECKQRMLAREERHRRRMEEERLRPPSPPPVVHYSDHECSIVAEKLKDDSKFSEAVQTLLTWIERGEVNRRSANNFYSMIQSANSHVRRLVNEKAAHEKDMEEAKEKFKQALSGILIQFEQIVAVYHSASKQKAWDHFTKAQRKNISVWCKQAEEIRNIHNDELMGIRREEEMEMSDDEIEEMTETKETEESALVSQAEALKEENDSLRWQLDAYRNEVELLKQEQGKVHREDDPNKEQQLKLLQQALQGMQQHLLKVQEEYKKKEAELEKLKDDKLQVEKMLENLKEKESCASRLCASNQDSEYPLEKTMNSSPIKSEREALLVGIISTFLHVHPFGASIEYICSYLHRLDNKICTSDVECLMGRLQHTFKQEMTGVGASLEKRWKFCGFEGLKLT", "test": "NOX-catalyzed oxidation of ubiquinol (preparation solubilized from HeLa cells)", "assay_type": "biochemical", "conditions": "HeLa NOX preparation; for EC50: read-out: EC50 inhibition of NOX-catalyzed oxidation of ubiquinol", "description": "(§2) FIG. 1. Oxidation of reduced ubiquinol at 37° C. by an enzymatic preparation with NADH oxidase activity solubilized from HeLa cells by low pH treatmnent, followed by heat and proteinase K. The disappearance of reduced ubiquinol was determined from the increase in absorbance at 410 nm as a function of time in the presence of 1 mg of the HeLa protein. The concentration of quinol was 50 mM, pH 7.\n(§3) Ubiquinol oxidation was estimated based on increase in absorbance at 410 nm for ubiquinone (FIG. 1)."}, "[3]": {"target": "T1, NOX (NADH oxidase / ubiquinol oxidase) from HeLa cells", "conditions": "NOX partially purified from surface of HeLa cells; cited from earlier work"}, "[4]": {"test_system": "T2, NOX (NADH oxidase / ubiquinol oxidase) from HeLa cells", "T2 construct": "rows headed: Km for quinol; other: substrate of NOX-catalyzed oxidation; Response of NOX-catalyzed oxidation of ubiquinol to agent; other: HeLa NOX preparation; Km for reduced Q10H2; other: NOX partially purified from surface of HeLa cells", "test": "NOX-catalyzed oxidation of ubiquinol (preparation solubilized from HeLa cells)", "assay_type": "biochemical, human", "conditions": "read-out: Km for quinol; substrate of NOX-catalyzed oxidation; heading: Km for quinol", "description": "as §2, §3"}, "[5]": {"test_system": "T2, NOX (NADH oxidase / ubiquinol oxidase) from HeLa cells", "conditions": "read-out: Km for reduced Q10H2; NOX partially purified from surface of HeLa cells; heading: Km for reduced Q10H2; cited from earlier work"}, "[6]": {"test_system": "MCF 10A", "test": "UV-induced superoxide production (cytochrome c reduction) by MCF 10A cells", "assay_type": "cell-based, human", "description": "as §1"}, "[7]": {"target": "T3, partially-purified preparation of the oxidase from HeLa cells (Homo sapiens, UniProt Q16206)", "T3 construct": "endogenous in cells; host or cells: HeLa", "T3 sequence (Q16206 1-610)": "T1 sequence (Q16206 1-610)", "test": "UV-induced superoxide generation by partially-purified oxidase from HeLa cells", "assay_type": "biochemical"}, "[8]": {"test_system": "BT-20", "test": "UV-induced superoxide production (cytochrome c reduction) by BT-20 cells", "assay_type": "cell-based, human", "description": "as §1"}, "[9]": {"test_system": "HeLa S", "test": "UV-induced superoxide production (cytochrome c reduction) by HeLa S cells", "assay_type": "cell-based, human", "description": "as §1"}}, "note": "Like-named read-outs stand apart in the source and are kept apart here.", "data": [{"smiles": "COC1=C(OC)C(=O)C(C/C=C(\\C)CC/C=C(\\C)CC/C=C(\\C)CC/C=C(\\C)CC/C=C(\\C)CC/C=C(\\C)CC/C=C(\\C)CC/C=C(\\C)CC/C=C(\\C)CCC=C(C)C)=C(C)C1=O", "note": "[Q10]", "values": [{"measurement": "Effect on superoxide-generating, aging-related enzymatic activity of sera", "setting": "[1]; 0.1 mM coenzyme Q, sera of elderly individuals 80-94 years", "value": "substantially reduced"}, {"measurement": "Inhibition of reduction of cytochrome c by sera of aged patients, on average", "setting": "[1]; sera of aged patients, average", "value": 36, "unit": "%"}, {"measurement": "Reduction of cytochrome c by sera, + 45 mg Q10", "setting": "[1]; sera of individuals 83-95 years (n = 5)", "value": "2.5 ± 1.4", "unit": "nmoles/min/ml/sera"}]}, {"smiles": "Cc1ccc(S(=O)(=O)NC(=O)Nc2ccc(Cl)cc2)cc1", "note": "[LY181984, N-(4-methylphenylsulfonyl)-N′-(4-chlorophenyl)urea]", "values": [{"measurement": "Type of inhibition of NOX-catalyzed oxidation of ubiquinol", "setting": "[2]", "value": "competitive"}, {"measurement": "EC50", "setting": "[2]", "value": 30, "unit": "nM"}, {"measurement": "Inhibition of ubiquinol oxidase activity", "setting": "[3]", "value": "inhibited competitively"}]}, {"smiles": "COc1c(O)c(C)c(C/C=C(\\C)CC/C=C(\\C)CC/C=C(\\C)CC/C=C(\\C)CC/C=C(\\C)CC/C=C(\\C)CC/C=C(\\C)CC/C=C(\\C)CC/C=C(\\C)CCC=C(C)C)c(O)c1OC", "note": "[quinol]", "values": [{"measurement": "Km", "setting": "[4]", "value": 33, "unit": "µM"}, {"measurement": "Km", "setting": "[5]", "value": 30, "unit": "µM"}]}, {"smiles": "COc1cc(CNC(=O)CCCC/C=C/C(C)C)ccc1O", "note": "[capsaicin, 8-methyl-N-vanillyl-6-noneamide]", "values": [{"measurement": "Effect on UV-induced generation of superoxide", "setting": "[6]; MCF10A", "value": "unaffected"}, {"measurement": "Reduction of cytochrome c as a measure of superoxide formation, After UV, + Capsaicin", "setting": "[6]; MCF 10A, 10 minutes of 254 nm UV, 2.5 mM capsaicin in DMSO, corrected for DMSO blank", "value": 7.2, "unit": "nmoles/min/10^6 cells"}, {"measurement": "Type of inhibition of NOX-catalyzed oxidation of ubiquinol", "setting": "[2]", "value": "competitive"}, {"measurement": "EC50", "setting": "[2]", "value": 1, "unit": "nM"}, {"measurement": "Inhibition of ubiquinol oxidase activity", "setting": "[3]", "value": "inhibited competitively"}, {"measurement": "Effect on UV-induced superoxide generation by partially-purified oxidase", "setting": "[7]", "value": "inhibited"}, {"measurement": "Effect on response to UV (superoxide generation)", "setting": "[8]", "value": "inhibited"}, {"measurement": "Reduction of cytochrome c as a measure of superoxide formation, After UV, + Capsaicin", "setting": "[8]; 10 minutes of 254 nm UV, 2.5 mM capsaicin in DMSO, corrected for DMSO blank", "value": "−3.7", "unit": "nmoles/min/10^6 cells"}, {"measurement": "Effect on response to UV (superoxide generation)", "setting": "[9]; HeLa", "value": "inhibited"}, {"measurement": "Reduction of cytochrome c as a measure of superoxide formation, After UV, + Capsaicin", "setting": "[9]; HeLa S, 10 minutes of 254 nm UV, 2.5 mM capsaicin in DMSO, corrected for DMSO blank", "value": 0.8, "unit": "nmoles/min/10^6 cells"}]}]}
